Experimental data reported in PubChem BioAssay (NCI).
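Five compound concentrations were applied to cells in 96-well plates for 48 hours; endpoints were derived by simple linear interpolation of the resulting dose-response curve. TGI is the concentration that stops growth completely.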

Columns and labels:
Experiment in all cases: inhibition of tumour cell growth, NCI panel, 48 h
786-0 renal = test system: 786-0 renal
A498 renal = test system: A498 renal
A549 NSCLC = test system: A549 NSCLC
ACHN renal = test system: ACHN renal
CCRF-CEM leukemia = test system: CCRF-CEM leukemia
COLO 205 colon = test system: COLO 205 colon
DLD-1 colon = test system: DLD-1 colon
DMS 114 small cell lung = test system: DMS 114 small cell lung
DMS 273 small cell lung = test system: DMS 273 small cell lung
EKVX NSCLC = test system: EKVX NSCLC
HCT-116 colon = test system: HCT-116 colon
HCT-15 colon = test system: HCT-15 colon
HOP-18 NSCLC = test system: HOP-18 NSCLC
HOP-62 NSCLC = test system: HOP-62 NSCLC
HOP-92 NSCLC = test system: HOP-92 NSCLC
HT29 colon = test system: HT29 colon
IGROV1 ovarian = test system: IGROV1 ovarian
K-562 leukemia = test system: K-562 leukemia
KM20L2 colon = test system: KM20L2 colon
LOX IMVI melanoma = test system: LOX IMVI melanoma
LXFL 529 NSCLC = test system: LXFL 529 NSCLC
M14 melanoma = test system: M14 melanoma
M19-MEL melanoma = test system: M19-MEL melanoma
MALME-3M melanoma = test system: MALME-3M melanoma
MOLT-4 leukemia = test system: MOLT-4 leukemia
NCI-H226 lung = test system: NCI-H226 lung
NCI-H23 lung = test system: NCI-H23 lung
NCI-H460 lung = test system: NCI-H460 lung
NCI-H522 lung = test system: NCI-H522 lung
OVCAR-3 ovarian = test system: OVCAR-3 ovarian
OVCAR-4 ovarian = test system: OVCAR-4 ovarian
OVCAR-5 ovarian = test system: OVCAR-5 ovarian
OVCAR-8 ovarian = test system: OVCAR-8 ovarian
RPMI-8226 leukemia = test system: RPMI-8226 leukemia
RXF 393 renal = test system: RXF 393 renal
RXF-631 renal = test system: RXF-631 renal
SF-268 CNS = test system: SF-268 CNS
SF-295 CNS = test system: SF-295 CNS
SF-539 CNS = test system: SF-539 CNS
SK-MEL-2 melanoma = test system: SK-MEL-2 melanoma
SK-MEL-28 melanoma = test system: SK-MEL-28 melanoma
SK-MEL-5 melanoma = test system: SK-MEL-5 melanoma
SK-OV-3 ovarian = test system: SK-OV-3 ovarian
SN12C renal = test system: SN12C renal
SNB-19 CNS = test system: SNB-19 CNS
SNB-75 CNS = test system: SNB-75 CNS
SNB-78 CNS = test system: SNB-78 CNS
SW-620 colon = test system: SW-620 colon
TK-10 renal = test system: TK-10 renal
U251 CNS = test system: U251 CNS
UACC-257 melanoma = test system: UACC-257 melanoma
UACC-62 melanoma = test system: UACC-62 melanoma
UO-31 renal = test system: UO-31 renal
XF 498 CNS = test system: XF 498 CNS
CAKI-1 renal = test system: CAKI-1 renal
HCC-2998 colon = test system: HCC-2998 colon
HL-60(TB) leukemia = test system: HL-60(TB) leukemia
KM12 colon = test system: KM12 colon
SR leukemia = test system: SR leukemia

**Q.** What does the source list for `COC(=O)C1=CO[C@@H](C)[C@@H]2Cn3ccc4c5ccccc5nc-4c3C[C@H]12`?
**A.** TGI (786-0 renal): > 100 µM; TGI (A498 renal): > 100 µM; TGI (A549 NSCLC): > 100 µM; TGI (ACHN renal): > 100 µM; TGI (CCRF-CEM leukemia): > 100 µM; TGI (COLO 205 colon): > 100 µM; TGI (DLD-1 colon): > 100 µM; TGI (DMS 114 small cell lung): > 100 µM; TGI (DMS 273 small cell lung): > 100 µM; TGI (EKVX NSCLC): > 100 µM; TGI (HCT-116 colon): > 100 µM; TGI (HCT-15 colon): > 100 µM; TGI (HOP-18 NSCLC): > 100 µM; TGI (HOP-62 NSCLC): > 100 µM; TGI (HOP-92 NSCLC): > 100 µM; TGI (HT29 colon): > 100 µM; TGI (IGROV1 ovarian): > 100 µM; TGI (K-562 leukemia): > 100 µM; TGI (KM20L2 colon): > 100 µM; TGI (LOX IMVI melanoma): > 100 µM; TGI (LXFL 529 NSCLC): > 100 µM; TGI (M14 melanoma): > 100 µM; TGI (M19-MEL melanoma): > 100 µM; TGI (MALME-3M melanoma): > 100 µM; TGI (MOLT-4 leukemia): > 100 µM; TGI (NCI-H226 lung): > 100 µM; TGI (NCI-H23 lung): > 100 µM; TGI (NCI-H460 lung): > 100 µM; TGI (NCI-H522 lung): > 100 µM; TGI (OVCAR-3 ovarian): > 100 µM; TGI (OVCAR-4 ovarian): > 100 µM; TGI (OVCAR-5 ovarian): > 100 µM; TGI (OVCAR-8 ovarian): > 100 µM; TGI (RPMI-8226 leukemia): > 100 µM; TGI (RXF 393 renal): > 100 µM; TGI (RXF-631 renal): > 100 µM; TGI (SF-268 CNS): > 100 µM; TGI (SF-295 CNS): > 100 µM; TGI (SF-539 CNS): > 100 µM; TGI (SK-MEL-2 melanoma): > 100 µM; TGI (SK-MEL-28 melanoma): > 100 µM; TGI (SK-MEL-5 melanoma): > 100 µM; TGI (SK-OV-3 ovarian): > 100 µM; TGI (SN12C renal): > 100 µM; TGI (SNB-19 CNS): > 100 µM; TGI (SNB-75 CNS): > 100 µM; TGI (SNB-78 CNS): > 100 µM; TGI (SW-620 colon): > 100 µM; TGI (TK-10 renal): > 100 µM; TGI (U251 CNS): > 100 µM; TGI (UACC-257 melanoma): > 100 µM; TGI (UACC-62 melanoma): > 100 µM; TGI (UO-31 renal): > 100 µM; TGI (XF 498 CNS): > 100 µM

**Q.** With `COC(=O)CCC(=O)Nc1ccc(Cl)cc1C` as the compound, how does the TGI (786-0 renal) read?
**A.** Its TGI is greater than 100 µM.

**Q.** And the TGI (A498 renal)?
**A.** Its TGI is greater than 79 µM.

**Q.** What about the TGI (A549 NSCLC) of the same compound?
**A.** The TGI was greater than 100 µM.

**Q.** And the TGI (ACHN renal)?
**A.** The TGI was greater than 100 µM.

**Q.** What about the TGI (CAKI-1 renal) of the same compound?
**A.** Its TGI is greater than 100 µM.

**Q.** What about the TGI (CCRF-CEM leukemia) of the same compound?
**A.** Its TGI is greater than 100 µM.

**Q.** And the TGI (COLO 205 colon)?
**A.** Its TGI is greater than 100 µM.

**Q.** And the TGI (DLD-1 colon)?
**A.** Its TGI is greater than 100 µM.

**Q.** And the TGI (DMS 114 small cell lung)?
**A.** The TGI was greater than 100 µM.

**Q.** What about the TGI (DMS 273 small cell lung) of the same compound?
**A.** The TGI was greater than 100 µM.

**Q.** And the TGI (EKVX NSCLC)?
**A.** The TGI was greater than 100 µM.

**Q.** And the TGI (HCC-2998 colon)?
**A.** The TGI was greater than 100 µM.

**Q.** And the TGI (HCT-116 colon)?
**A.** The TGI was greater than 100 µM.

**Q.** And the TGI (HCT-15 colon)?
**A.** Its TGI is greater than 100 µM.

**Q.** What about the TGI (HL-60(TB) leukemia) of the same compound?
**A.** The TGI was 13.6 µM.

**Q.** And the TGI (HOP-18 NSCLC)?
**A.** Its TGI is greater than 100 µM.

**Q.** And the TGI (HOP-62 NSCLC)?
**A.** Its TGI is greater than 100 µM.

**Q.** What about the TGI (HOP-92 NSCLC) of the same compound?
**A.** Its TGI is greater than 100 µM.

**Q.** And the TGI (HT29 colon)?
**A.** Its TGI is greater than 100 µM.

**Q.** And the TGI (IGROV1 ovarian)?
**A.** Its TGI is greater than 100 µM.

**Q.** And the TGI (K-562 leukemia)?
**A.** Its TGI is greater than 100 µM.

**Q.** And the TGI (KM12 colon)?
**A.** Its TGI is greater than 100 µM.

**Q.** And the TGI (KM20L2 colon)?
**A.** Its TGI is greater than 100 µM.

**Q.** What about the TGI (LOX IMVI melanoma) of the same compound?
**A.** Its TGI is greater than 100 µM.

**Q.** And the TGI (LXFL 529 NSCLC)?
**A.** Its TGI is greater than 100 µM.

**Q.** And the TGI (M14 melanoma)?
**A.** Its TGI is greater than 100 µM.

**Q.** And the TGI (M19-MEL melanoma)?
**A.** The TGI was greater than 100 µM.

**Q.** And the TGI (MALME-3M melanoma)?
**A.** The TGI was greater than 100 µM.

**Q.** And the TGI (MOLT-4 leukemia)?
**A.** The TGI was greater than 100 µM.

**Q.** What about the TGI (NCI-H226 lung) of the same compound?
**A.** Its TGI is greater than 100 µM.

**Q.** And the TGI (NCI-H23 lung)?
**A.** The TGI was greater than 100 µM.

**Q.** And the TGI (NCI-H460 lung)?
**A.** Its TGI is greater than 100 µM.

**Q.** What about the TGI (NCI-H522 lung) of the same compound?
**A.** Its TGI is greater than 100 µM.

**Q.** And the TGI (OVCAR-3 ovarian)?
**A.** The TGI was greater than 100 µM.

**Q.** What about the TGI (OVCAR-4 ovarian) of the same compound?
**A.** Its TGI is greater than 100 µM.

**Q.** And the TGI (OVCAR-5 ovarian)?
**A.** Its TGI is greater than 100 µM.

**Q.** What about the TGI (OVCAR-8 ovarian) of the same compound?
**A.** The TGI was greater than 100 µM.

**Q.** What about the TGI (RPMI-8226 leukemia) of the same compound?
**A.** The TGI was greater than 100 µM.

**Q.** And the TGI (RXF 393 renal)?
**A.** The TGI was greater than 100 µM.

**Q.** What about the TGI (RXF-631 renal) of the same compound?
**A.** Its TGI is greater than 100 µM.

**Q.** And the TGI (SF-268 CNS)?
**A.** The TGI was greater than 100 µM.

**Q.** And the TGI (SF-295 CNS)?
**A.** The TGI was greater than 100 µM.

**Q.** And the TGI (SF-539 CNS)?
**A.** The TGI was greater than 100 µM.

**Q.** What about the TGI (SK-MEL-2 melanoma) of the same compound?
**A.** Its TGI is greater than 100 µM.

**Q.** What about the TGI (SK-MEL-28 melanoma) of the same compound?
**A.** The TGI was greater than 100 µM.

**Q.** What about the TGI (SK-MEL-5 melanoma) of the same compound?
**A.** Its TGI is greater than 100 µM.

**Q.** And the TGI (SK-OV-3 ovarian)?
**A.** The TGI was greater than 100 µM.

**Q.** What about the TGI (SN12C renal) of the same compound?
**A.** Its TGI is greater than 100 µM.

**Q.** And the TGI (SNB-19 CNS)?
**A.** The TGI was greater than 100 µM.

**Q.** What about the TGI (SNB-75 CNS) of the same compound?
**A.** Its TGI is greater than 100 µM.

**Q.** And the TGI (SNB-78 CNS)?
**A.** The TGI was greater than 100 µM.

**Q.** What about the TGI (SR leukemia) of the same compound?
**A.** Its TGI is greater than 100 µM.

**Q.** What about the TGI (SW-620 colon) of the same compound?
**A.** Its TGI is greater than 100 µM.

**Q.** What about the TGI (TK-10 renal) of the same compound?
**A.** The TGI was greater than 100 µM.

**Q.** And the TGI (U251 CNS)?
**A.** The TGI was greater than 100 µM.

**Q.** What about the TGI (UACC-257 melanoma) of the same compound?
**A.** The TGI was greater than 100 µM.

**Q.** And the TGI (UACC-62 melanoma)?
**A.** The TGI was greater than 100 µM.

**Q.** And the TGI (UO-31 renal)?
**A.** Its TGI is greater than 100 µM.

**Q.** And the TGI (XF 498 CNS)?
**A.** Its TGI is greater than 100 µM.
